Measurements from patent US11684675B2, “Dimeric collagen hybridizing peptides and methods of using” (University of Utah Research Foundation, priority 2015, dated 2023).
Non-standard residues stand in square brackets, D forms with d. No end group written: not given here. Hyp = O=C(O)[C@@H]1C[C@@H](O)CN1; CF = carboxyfluorescein label

Assays:
[1] = Triple helix melting point (Tm) by circular dichroism at 225 nm; assay type: physicochemical; settings: triple helix melting
Protocol: FIGS. 5A, 5B, 5C, and 5D show the thermal denaturation of fully assembled CHPs and subsequent cooling to initial temperature. Samples were heated at 1° C./min from their initial temperature final temperature of 90° C. Sample was then cooled at 1° C./min to the starting temperature. (A) Thermal denaturation and partial reassembly of CHP CF-6d (150 μM) monitored at 225 nm. Sample was measured from 4° C. to 90° C. (B) Thermal denaturation and partial reassembly of CHP […] (75 μM, corresponding to 150 μM strand concentration) monitored at 225 nm. Sample was measured from 4° C. to 90° C. (C) Thermal denaturation and partial reassembly of CHP CF-9 (150 μM) monitored at 225 nm. Sample was measured from 10° C. to 90° C. (D) Thermal denaturation and partial reassembly of CHP CF-9d (75 μM, corresponding to 150 μM strand concentration) monitored at 225 nm. Sample was measured from 10° C. to 90° C.
FIGS. 11A and 11B show the First Derivative of mean residue ellipticity (MRE) at 225 nm in CD. […] There is no significant change in melting point between the monomeric and dimeric forms of the same peptide.
(§1) Circular Dichroism: Circular Dichroism (CD) was measured for all peptides at 225 nm. Melting curves were taken on peptides between 10 and 80° C. at a heating rate of 0.5° C./min, with pauses at each 1° C. Refolding experiments were performed after peptide solutions were incubated at 4° C. for at least 12 hours. Concentrations were normalized to strand concentration.

[2] = test system: crosslinked gelatin films; test: Binding of CF-labelled CHPs to crosslinked gelatin films at 37° C. with and without preheating; design: species or system porcine; settings: for binding to gelatin wells at 37° C. without preheating: 20 μM, 37° C. overnight, PBS wash 20 h, FIG. 6C
Protocol: FIGS. 3A and 3B show the affinity of CHPs to gelatin films as monitored by fluorescence of conjugated CF fluorophore (492 ex, 533 em). (A) Fluorescence of CHPs bound to crosslinked gelatin after incubation at 37° C. overnight with no workup. (B) Fluorescence of CHPs remaining in crosslinked gelatin after incubation at 37° C. overnight without preheating, followed by washing with 1×PBS at 37° C. (20 h).
(§2) (A) Fraction of peptide remaining in a crosslinked gelatin film after 17 h at 25° C. (10 total washes). Values are normalized to fluorescence remaining in wells after 6 washes at 4° C. (>95% removal of CHPs 9r, 6r, and 5r). All washes performed in 1×PBS. (B) CHPs (15 μM) premixed into 10% porcine gelatin and preheated to 80° C. (10 min) before being added to a 96 well plate. Excess CHP-gelatin mixture was removed, then the premix was incubated at 4° C. for 2 hours. Wells were washed at 4° C., 5 times (>95% removal of CHPs 9r, 6r, and 5r). Wells were then washed for 2 hours (6 washes total) at 25° C. to monitor CHP remaining in the well. (C) Fluorescence of CHPs remaining in crosslinked gelatin after incubation at 37° C. overnight without preheating, followed by washing with 1×PBS at 37° C. (20 h). (D) Fluorescence of CHPs remaining in crosslinked gelatin after incubation at 37° C. overnight (80° C. preheating, 10 min), followed by washing with 1×PBS at 37° C. (20 h).
Dimeric CHPs were assessed for their ability to bind to collagen strands in crosslinked gelatin films. CHP solutions (20 μM in PBS) were added directly to the crosslinked gelatin films. For heated experiments, CHPs were preheated to 80° C. for 10 minutes before addition. Peptides were allowed to fully equilibrate with the gel at 37° C. overnight before being exposed to repeated washes (4×, PBS) at 37° C. to fully remove any non-specifically bound peptide and to determine binding level at body temperature. To measure retention, peptides were bound as previously described, but were subsequently washed with PBS 37° C. (5×1 h, 1×12 h) to measure retention within the gelatin films. […] Additionally, after a period of 20 hours, higher level of the dimeric CHP remained in the gelatin compared to the monomeric CHP.
A major limitation of the use of CHP in vivo, is the requirement of the triple helix to be fully disassembled before being injected. […] For this test, peptide solutions were allowed to warm to room temperature before being added (50 μL, 20 μM) to previously prepared crosslinked gelatin films. Solutions were then incubated at 37° C. overnight before removing the solution. Wells were washed at 37° C. with PBS (20 h) to determine binding. Preheated samples were prepared and incubated in the same way, but with preheating (80° C., 10 min) before being added to the crosslinked gelatin wells.

[3] = test system: crosslinked gelatin films; test: Retention of CF-labelled CHPs in crosslinked gelatin films (bound at 4° C., washed at 25° C./r.t.); assay type: binding, porcine; settings: for retention / affinity in gelatin films: 20 μM, preheated 80° C., bound at 4° C., washed at r.t. with PBS, FIG. 6A; for retention in crosslinked gelatin films: Example 3 retention studies
Protocol: as §2
Binding to Gelatin films. Peptide solutions (20 μM in PBS) were preheated to 80° C. for 10 minutes before being added directly to the crosslinked gelatin films. Peptides were allowed to fully equilibrate with the gel at 4° C. overnight before being exposed to repeated washes (4×30 min) at 4° to fully remove any non-specifically bound peptide. Gelatin wells were then washed at r.t. with PBS (5×1 h, lx 12 h) to measure retention within the gelatin films. […] To eliminate the possibility of these peptides merely becoming physically entrapped within the gelatin after forming triple helix or forming triple helix before binding, binding affinity was verified by producing a premix of the CHPs and Gelatin to eliminated diffusion-limited binding before washing the wells in a similar manner.
Fluorescence Binding: CHP binding to gelatin was monitored by conjugating a fluorescent Carboxyfluorescein (CF) molecule to the N-terminus of each peptide via standard SPPS. Solutions of the fluorescent peptides were heated to 80° C. for 5 min before injecting 50 μL onto a pre-prepared EDC-crosslinked thin gelatin film in a 96 well plate. Peptides incubated overnight at 4° C., then washed with repeated rounds of 4° C. 1×PBS followed by 25° C. 1×PBS.

[4] = CD refolding (triple helix assembly) at 10° C. monitored at 225 nm; assay type: physicochemical; settings: 10° C., FIG. 12A
Protocol: Conversion was assumed to be at 100% after 96 h incubation at 4° C., and max trimer concentration was measured via CD ellipticity at 10° C. Samples were preheated to 80° C. in the sample cuvette for 10 min before being transferred directly to the sample holder held at a constant 10° C. Sample measurement began immediately. Initial time point for analysis was determined by measuring time for a blank (lx PBS) to thermally equilibrate in these conditions.
For all peptides, conversion was assumed to be at 100% after 96 h incubation at 4° C., and max trimer concentration was measured via CD ellipticity at 10° C. Samples were preheated to 80° C. in the sample cuvette for 10 min before being transferred directly to the sample holder held at a constant 10° C. Sample measurement began immediately. Initial time point for analysis was determined by measuring time for a blank (1×PBS) to thermally equilibrate in these conditions. This was set as the zero point for all peptides, as the large jump in CD due to temperature makes the initial jump irresolvable. (A) Rate of assembly of CHP 9 (60, 30, and 15 μM), over 2 h, monitored at 225 nm. (B) Rate of assembly of CHP 9d (30, 15, and 7.5 μM, corresponding to same CHP strand concentration from panel A), over 2 h, monitored at 225 nm. (C) Rate of assembly of CHP 6 (150 and 75 μM), over 2 h, monitored at 225 nm.
FIGS. 12A and 12B show CD refolding at 10° C. of CMPs monitored at 225 nm. CMPs were heated to 80° C. for 5 minutes before being placed into the CD and initial 2 min of monitored data was removed to eliminate thermal transition. Signal was normalized to that of a fully folded peptide.
as §1

[5] = test system: porcine gelatin; test: SPR gelatin capture by immobilized biotinylated CHPs; assay type: binding; settings: gelatin 25 μg/mL
Protocol: FIGS. 7A and 7B show SPR data for porcine gelatin capture by immobilized CHPs. […] Gelatin was applied to the sensor surface during the association phase, followed by elution with blank during dissociation phase. Association occurred for 981 s, followed by dissociation for 1800 s. Values were normalized to a 100% biotin lane, and were adjusted to the mass of peptide immobilized in each well. (A) Preheated (80° C., 10 min), quenched (0° C., 30 s) gelatin (25 μg/mL) was applied to the sensor at an ambient temperature of 37° C. (B) Preheated (80° C., 10 min), quenched (0° C., 30 s) gelatin (25 μg/mL) was applied to the sensor at an ambient temperature of 15° C.
Surface Plasmon Resonance (SPR). […] However, there were major differences observed during the association phase. At 37° C., there was a much higher amount of gelatin adsorbed to all the peptides tested on the surface when compared to 15° C. […] At 15° C., gelatin adsorbed to the surface at a much slower rate. […] However, this lower adsorption rate can be due to a reduced diffusion rate near the surface or a more condensed gelatin structure at this lower temperature.
Dimeric CHP is able to hybridize effectively with denatured collagens with faster folding kinetics than current, monomeric CHPs. Surface plasmon resonance (SPR) was used to measure the ability of the CHPs to trap denatured collagen from solution.

Substance | Tm (° C.) ([1]; Table 2) | Tm (° C.) ([1]; Table 1) | retention / affinity in gelatin films [3] | also measured
(GPO)5 [compound 5, reference compound] | 27 (SEQ ID NO: 67) ° C. | – | – | binding to gelatin wells at 37° C. without preheating [2]: do not have a strong enough affinity to the gelatin to bind effectively at physiologic temperature
(GPO)6-G3K^Biotin [b-6] | 36 (SEQ ID NO: 64) ° C. | – | – | –
(GPO)9-G3K^Biotin [b-9] | 68 (SEQ ID NO: 61) ° C. | – | – | –
CF-G3-(GPO5) (GGGGPPGPPGPPGPPGPP; carboxyfluorescein label; collagen hybridizing peptide; (6)..(6) Proline is hydroxyproline; (9)..(9) Proline is hydroxyproline; (12)..(12) Proline is hydroxyproline; (15)..(15) Proline is hydroxyproline; (18)..(18) Proline is hydroxyproline) [CF-5, reference compound] | 28 (SEQ ID NO: 69) ° C. | – | almost entirely washed out of the gelatin films | –
CF-G3-(GPO6) (GGGGPPGPPGPPGPPGPPGPP; carboxyfluorescein label; collagen hybridizing peptide; (6)..(6) Proline is hydroxyproline; (9)..(9) Proline is hydroxyproline; (12)..(12) Proline is hydroxyproline; (15)..(15) Proline is hydroxyproline; (18)..(18) Proline is hydroxyproline; (21)..(21) Proline is hydroxyproline) [CF-6] | 37 (SEQ ID NO: 60) ° C. | 37 (SEQ ID NO: 60) ° C. | almost entirely washed out of the gelatin films | –
[(CF-G3GPO)5G3)2KG ({CF}-GGGGP[Hyp]GP[Hyp]GP[Hyp]GP[Hyp]GP[Hyp]GGGKGGG[Hyp]PG[Hyp]PG[Hyp]PG[Hyp]PG[Hyp]PGGGG; not fully specified (C-terminus); also: lysine-branched dimer: K22 is the branch point, second arm (23-43) is written reversed, its N-terminus at position 43 carries CF) [CF-5d] | 28 (SEQ ID NO: 70) ° C. | – | higher affinity to the gelatin films than CF-6 | –
[(GPO)5G3)2KG (GP[Hyp]GP[Hyp]GP[Hyp]GP[Hyp]GP[Hyp]GGGKGGG[Hyp]PG[Hyp]PG[Hyp]PG[Hyp]PG[Hyp]PG; not fully specified (C-terminus); also: lysine-branched dimer: K19 is branch point carrying two arms and a third (C-terminal) Gly, residues 20-37 are the second arm written in reverse order) [5d] | 27 (SEQ ID NO: 68) ° C. | – | – | –
[(GPO)6G3)2KG3K^Biotin [b-6d] | 37 (SEQ ID NO: 65) ° C. | – | – | –
[(GPO)9G3)2KG3K^Biotin [b-9d] | 68 (SEQ ID NO: 62) ° C. | – | – | –

The next lines start with results.

Tm (° C.) ([1]; Table 2) | Tm (° C.) ([1]; Table 1) | Substance | retention / affinity in gelatin films [3] | also measured
69 (SEQ ID NO: 57) ° C. | 69 (SEQ ID NO: 57) ° C. | CF-G3-(GPO9) [CF-9] | – | retention in crosslinked gelatin films [3]: 58%
73 (SEQ ID NO: 55 w/label) ° C. | 73 (SEQ ID NO: 55 °C | [(CF-Ahx-GPO)9G3)2KG [CF-9d] | – | –
50 (SEQ ID NO: 63) ° C. | 50 (SEQ ID NO: 63) ° C. | [(CF-G3GPO)6G3)2KG [CF-6d] | comparable affinity to that of the GPO9 monomer (CF-9) and GPO9 dimer (CF-9d) | retention in crosslinked gelatin films [3]: 66%; more peptide remaining after 20 hours of wash ([2]; 37° C., non-preheated, vs currently utilized CHP, FIG. 17): 50%; higher initial binding to the gelatin substrate ([2]; non-preheated, vs currently utilized CHP, FIG. 17): 350%
69 (SEQ ID NO: 55) ° C. | 69 (SEQ ID NO: 55) ° C. | [(GPO)9G3)2KG [9d] | – | increase in refolding rate compared to monomeric GPO9 [4]: two-fold; binding to gelatin wells at 37° C. without preheating [2]: bind more significantly than the GPO9 monomer without preheating; ability to bind gelatin ([5]; 15° C.): maintained its greater ability to bind gelatin; ability to bind gelatin ([5]; 37° C.): higher ability to bind gelatin than that of an equivalent number of strands in their monomeric counterparts
